From patent US20140170237A1, “ANTIMICROBIAL COMPOSITIONS CONTAINING MIXTURES OF FATTY AND HYDROXYL CARBOXYLIC ACIDS” (priority 2012, published 2014)
“Also recorded” adds a separate entry of the source.

Assay: Cold solubility / 4 C storage of commercial fatty acids and their mixtures
Format: physicochemical
Settings: 1 day, no solvent or surfactant

For CCCCCCCCCCCC(=O)O [C12, dodecanoic], which “4 C. Storage, physical state” value is on record?
The value was “solid or formed crystals; also recorded: Solid”.
